Assay results published in paper PMC4503722, “Novel Phenotypic Outcomes Identified for a Public Collection of Approved Drugs from a Publicly Accessible Panel of Assays” (PLoS ONE, 2015).

The compounds below were run on SNU-C1 (assay: cells). Conditions: assay number 30; basal.
Assay type: cell-based

| Structure (SMILES) | Basal_Viability ATP SNU-C1 IC50/EC50 [µM] |
| --- | --- |
| CCC(C(=O)OCCOCCN(CC)CC)c1ccccc1.O=C(O)CC(O)(CC(=O)O)C(=O)O (stereo not shown) [NCGC00160645-02] | > 20 |
| CN1CCN(C2Cc3ccccc3Sc3ccc(Cl)cc32)CC1.O=C(O)/C=C\C(=O)O (stereo not shown) [NCGC00015759-05] | 7.8734 |

Same assay, conditions: assay number 30; basal; read-out: Basal_Viability ATP SNU-C1 summarized IC50

| Structure (SMILES) | IC50 [µM] |
| --- | --- |
| COC(=O)c1ccccc1C(=O)OC [NCGC00090692-06] | > 20 |

Same assay, conditions: assay number 30; concentration response

| Structure (SMILES) | Basal_Viability ATP SNU-C1 IC50/EC50 [µM] |
| --- | --- |
| O=C(OCCO)c1ccccc1O [NCGC00159379-04] | > 20 |

The compounds below were run on HT-29 (assay: cells). Conditions: assay number 28; basal.
Assay type: cell-based

| Structure (SMILES) | Basal_Viability ATP HT-29 IC50/EC50 [µM] |
| --- | --- |
| CCC(C(=O)OCCOCCN(CC)CC)c1ccccc1.O=C(O)CC(O)(CC(=O)O)C(=O)O (stereo not shown) [NCGC00160645-02] | > 20 |
| CN1CCN(C2Cc3ccccc3Sc3ccc(Cl)cc32)CC1.O=C(O)/C=C\C(=O)O (stereo not shown) [NCGC00015759-05] | 8.001 |

Same assay, conditions: assay number 28; basal; read-out: Basal_Viability ATP HT-29 summarized IC50

| Structure (SMILES) | IC50 [µM] |
| --- | --- |
| COC(=O)c1ccccc1C(=O)OC [NCGC00090692-06] | > 20 |

Same assay, conditions: assay number 28; concentration response

| Structure (SMILES) | Basal_Viability ATP HT-29 IC50/EC50 [µM] |
| --- | --- |
| O=C(OCCO)c1ccccc1O [NCGC00159379-04] | > 20 |

Each compound was assayed on RKO (assay: cells). Conditions: assay number 29; basal.
Assay type: cell-based

| Structure (SMILES) | Basal_Viability ATP RKO IC50/EC50 [µM] |
| --- | --- |
| CCC(C(=O)OCCOCCN(CC)CC)c1ccccc1.O=C(O)CC(O)(CC(=O)O)C(=O)O (stereo not shown) [NCGC00160645-02] | > 20 |
| CN1CCN(C2Cc3ccccc3Sc3ccc(Cl)cc32)CC1.O=C(O)/C=C\C(=O)O (stereo not shown) [NCGC00015759-05] | > 20 |

Same assay, conditions: assay number 29; basal; read-out: Basal_Viability ATP RKO summarized IC50

| Structure (SMILES) | IC50 [µM] |
| --- | --- |
| COC(=O)c1ccccc1C(=O)OC [NCGC00090692-06] | > 20 |

Same assay, conditions: assay number 29; concentration response

| Structure (SMILES) | Basal_Viability ATP RKO IC50/EC50 [µM] |
| --- | --- |
| O=C(OCCO)c1ccccc1O [NCGC00159379-04] | > 20 |

Each compound was assayed on endothelial tube formation in co-cultures of ECFCs and ADSCs treated with VEGF (assay: cells). Conditions: not given.
Assay type: cell-based, human

| Structure (SMILES) | VEGF_ADSC\ECFC Angio CD31 TubeArea IC50/EC50 [µM] |
| --- | --- |
| O=C(OCCO)c1ccccc1O [NCGC00159379-04] | > 10 |
| CCC(C(=O)OCCOCCN(CC)CC)c1ccccc1.O=C(O)CC(O)(CC(=O)O)C(=O)O (stereo not shown) [NCGC00160645-02] | > 10 |
| CN1CCN(C2Cc3ccccc3Sc3ccc(Cl)cc32)CC1.O=C(O)/C=C\C(=O)O (stereo not shown) [NCGC00015759-05] | 5.2302 |

Same assay, conditions: read-out: VEGF_ADSC\ECFC Angio CD31 TubeArea summarized IC50

| Structure (SMILES) | IC50 [µM] |
| --- | --- |
| COC(=O)c1ccccc1C(=O)OC [NCGC00090692-06] | > 10 |

What follows are compounds tested on DLD-1 (assay: cells). Conditions: assay number 23; basal.
Assay type: cell-based

| Structure (SMILES) | Basal_Viability ATP DLD-1 IC50/EC50 [µM] |
| --- | --- |
| CCC(C(=O)OCCOCCN(CC)CC)c1ccccc1.O=C(O)CC(O)(CC(=O)O)C(=O)O (stereo not shown) [NCGC00160645-02] | > 20 |
| CN1CCN(C2Cc3ccccc3Sc3ccc(Cl)cc32)CC1.O=C(O)/C=C\C(=O)O (stereo not shown) [NCGC00015759-05] | > 20 |

Same assay, conditions: assay number 23; basal; read-out: Basal_Viability ATP DLD-1 summarized IC50

| Structure (SMILES) | IC50 [µM] |
| --- | --- |
| COC(=O)c1ccccc1C(=O)OC [NCGC00090692-06] | > 20 |

Same assay, conditions: assay number 23; concentration response

| Structure (SMILES) | Basal_Viability ATP DLD-1 IC50/EC50 [µM] |
| --- | --- |
| O=C(OCCO)c1ccccc1O [NCGC00159379-04] | > 20 |

What follows are compounds tested on HCT116 (assay: cells). Conditions: assay number 25; basal.
Assay type: cell-based

| Structure (SMILES) | Basal_Viability ATP HCT116 IC50/EC50 [µM] |
| --- | --- |
| CCC(C(=O)OCCOCCN(CC)CC)c1ccccc1.O=C(O)CC(O)(CC(=O)O)C(=O)O (stereo not shown) [NCGC00160645-02] | > 20 |
| CN1CCN(C2Cc3ccccc3Sc3ccc(Cl)cc32)CC1.O=C(O)/C=C\C(=O)O (stereo not shown) [NCGC00015759-05] | 9.1662 |

Same assay, conditions: assay number 25; basal; concentration response

| Structure (SMILES) | Basal_Viability ATP HCT116 IC50/EC50 [µM] |
| --- | --- |
| O=C(OCCO)c1ccccc1O [NCGC00159379-04] | > 20 |

Same assay, conditions: assay number 25; basal; read-out: Basal_Viability ATP HCT116 summarized IC50

| Structure (SMILES) | IC50 [µM] |
| --- | --- |
| COC(=O)c1ccccc1C(=O)OC [NCGC00090692-06] | > 20 |

The compounds below were run on SW480 (assay: cells). Conditions: assay number 24; basal.
Assay type: cell-based

| Structure (SMILES) | Basal_Viability ATP SW480 IC50/EC50 [µM] |
| --- | --- |
| CCC(C(=O)OCCOCCN(CC)CC)c1ccccc1.O=C(O)CC(O)(CC(=O)O)C(=O)O (stereo not shown) [NCGC00160645-02] | > 20 |
| CN1CCN(C2Cc3ccccc3Sc3ccc(Cl)cc32)CC1.O=C(O)/C=C\C(=O)O (stereo not shown) [NCGC00015759-05] | 6.3146 |

Same assay, conditions: assay number 24; basal; read-out: Basal_Viability ATP SW480 summarized IC50

| Structure (SMILES) | IC50 [µM] |
| --- | --- |
| COC(=O)c1ccccc1C(=O)OC [NCGC00090692-06] | > 20 |

Same assay, conditions: assay number 24; concentration response

| Structure (SMILES) | Basal_Viability ATP SW480 IC50/EC50 [µM] |
| --- | --- |
| O=C(OCCO)c1ccccc1O [NCGC00159379-04] | > 20 |

These compounds were tested on HCT116 cells treated with a GSK3β inhibitor (assay: cells). Conditions: assay number 26; GSK3b inhibitor pretreated.
Assay type: cell-based

| Structure (SMILES) | GSK3b inh pretreated_Viability ATP HCT116 IC50/EC50 [µM] |
| --- | --- |
| CCC(C(=O)OCCOCCN(CC)CC)c1ccccc1.O=C(O)CC(O)(CC(=O)O)C(=O)O (stereo not shown) [NCGC00160645-02] | > 20 |
| CN1CCN(C2Cc3ccccc3Sc3ccc(Cl)cc32)CC1.O=C(O)/C=C\C(=O)O (stereo not shown) [NCGC00015759-05] | 8.3951 |

Same assay, conditions: assay number 26; GSK3b inhibitor pretreated; concentration response

| Structure (SMILES) | GSK3b inh pretreated_Viability ATP HCT116 IC50/EC50 [µM] |
| --- | --- |
| O=C(OCCO)c1ccccc1O [NCGC00159379-04] | > 20 |

Same assay, conditions: assay number 26; GSK3b inhibitor pretreated; read-out: GSK3b inh pretreated_Viability ATP HCT116 summarized IC50

| Structure (SMILES) | IC50 [µM] |
| --- | --- |
| COC(=O)c1ccccc1C(=O)OC [NCGC00090692-06] | > 20 |

These compounds were tested on ECFC/ADSC co-culture cell nuclei number (assay: not given). Conditions: not given.

| Structure (SMILES) | VEGF_ADSC\ECFC Angio Hoechst NucArea IC50/EC50 [µM] |
| --- | --- |
| O=C(OCCO)c1ccccc1O [NCGC00159379-04] | > 10 |
| CCC(C(=O)OCCOCCN(CC)CC)c1ccccc1.O=C(O)CC(O)(CC(=O)O)C(=O)O (stereo not shown) [NCGC00160645-02] | > 10 |
| CN1CCN(C2Cc3ccccc3Sc3ccc(Cl)cc32)CC1.O=C(O)/C=C\C(=O)O (stereo not shown) [NCGC00015759-05] | > 10 |

Same assay, conditions: read-out: VEGF_ADSC\ECFC Angio Hoechst NucArea summarized IC50

| Structure (SMILES) | IC50 [µM] |
| --- | --- |
| COC(=O)c1ccccc1C(=O)OC [NCGC00090692-06] | > 10 |

What follows are compounds tested on Colo320 (assay: cells). Conditions: assay number 27; basal.
Assay type: cell-based

| Structure (SMILES) | Basal_Viability ATP Colo 320 IC50/EC50 [µM] |
| --- | --- |
| CCC(C(=O)OCCOCCN(CC)CC)c1ccccc1.O=C(O)CC(O)(CC(=O)O)C(=O)O (stereo not shown) [NCGC00160645-02] | > 20 |
| CN1CCN(C2Cc3ccccc3Sc3ccc(Cl)cc32)CC1.O=C(O)/C=C\C(=O)O (stereo not shown) [NCGC00015759-05] | > 6.6667 |

Same assay, conditions: assay number 27; basal; read-out: Basal_Viability ATP Colo 320 summarized IC50

| Structure (SMILES) | IC50 [µM] |
| --- | --- |
| COC(=O)c1ccccc1C(=O)OC [NCGC00090692-06] | > 20 |

Same assay, conditions: assay number 27; concentration response

| Structure (SMILES) | Basal_Viability ATP Colo 320 IC50/EC50 [µM] |
| --- | --- |
| O=C(OCCO)c1ccccc1O [NCGC00159379-04] | > 20 |
